# Where two headings read alike, the source gives them in different places.
# Legend:
# [1] = system: MCP5/L cells; settings: IgE-receptor cross-linkage 30 min, various concentrations of EDTA, FIG. 8B
# Experimental: Activation of mast cells in vitro. For FcεRI-dependent activation, MCP5/L cells were resuspended at 1×10^6 cells/ml and sensitized using a monoclonal murine IgE anti-TNP (trinitrophenyl) (IgEl-b4, ATCC, Manassas, Va.) antibody (15% hybridoma supernatant) for 90 min. The cells were washed twice with warm medium, followed by challenge with 1 μg/ml TNP-BSA for time periods indicated. For cell viability assays, both the anitbody sensitization and the anitgen challenge were performed in RPMI medium supplemented with 0.5% BSA (Sigma) at 37° C. in a humidified incubator containing 5% CO2. […]
# Measurement of release. […] The reaction was stopped by adding glycine (0.2 M, pH 10.7) into each well and the absorbance was measured. Percentage of β-hexosaminidase release is calculated as the absorbance of the supernatant over that of the combination of supernatant and lysate. […]
# Effects of cold incubation and EDTA treatment on A1 induction and mast cell degranulation. […] (B) and (C) levels of β-hexosaminidase (β-hex) in the supernatants from either control cells or cells stimulated through IgE-receptor cross-linkage for 30 min, in the absence or presence of various concentrations of EDTA (B), or in cold incubation (C), were determined as a measurement of activation and de-granulation by an enzymatic colorimetric assay
# [2] = system: A1 gene; experiment: RNAse Protection Assay (RPA) of A1 gene expression in MCP5/L mast cells; assay type: cell-based, mouse
# Experimental: Activation of mast cells in vitro. For FcεRI-dependent activation, MCP5/L cells were resuspended at 1×10^6 cells/ml and sensitized using a monoclonal murine IgE anti-TNP (trinitrophenyl) (IgEl-b4, ATCC, Manassas, Va.) antibody (15% hybridoma supernatant) for 90 min. The cells were washed twice with warm medium, followed by challenge with 1 μg/ml TNP-BSA for time periods indicated. For cell viability assays, both the anitbody sensitization and the anitgen challenge were performed in RPMI medium supplemented with 0.5% BSA (Sigma) at 37° C. in a humidified incubator containing 5% CO2. For gene regulation studies, all the incubations were carried out in RPMI medium supplemented with 5% fetal bovine serum and antibiotics on a rocker platform. In some experiments, cells were cross-linked in the medium containing 1 mM EDTA or cells were incubated in ice-cold water during FcεRI cross-linking. Where indicated, various inhibitors were introduced to test their effects on A1 regulation after FcεRI cross-linking. These include bisindolylmaleimid (100 nM), wortmannin (100 nM), SB 203580 (pyridinylimidazole compound, inhibitor of p 38 mitogen-activated protein kinase) (1 μM), PD 98059 (2-(2-amino-3-methoxyphenyl)-4-oxo-4H-[1]benzopyran, inhibitor of mitogen-activated protein kinase Kinase-1 (MEK1)) (10 μM), genistein (1 μM), suramin (100 μM), cyclosporin A (2 μg/ml), dexamethasone (1 μM) and cycloheximide (10 μg/ml). Dexamethasone and suramin were added 14 hr and 24 hr, respectively, before IgE sensitization. All the other inhibitors were added at the same time as FcεRI aggregation. […]
# Isolation of RNA and RNAse Protection Assay (RPA) analysis. […] Pixel intensity was determined using a phosphoimaging device. Levels of each gene transcript were quantified by MacBas V2.2 (Fuji Photo Film Co. Ltd., Japan). […]
# [3] = system: MCP5/L cells; experiment: Cell viability by trypan blue exclusion in medium deprived of serum and growth factors; assay type: cell-based, mouse; settings: 4 days in medium deprived of serum and growth factors, FIG. 7
# Experimental: The growth factor dependent mouse mast cell line MCP5/L was maintained in the same medium described above. For cell viability assays, the cell suspension was mixed with the vital dye, trypan blue, and only the number of live cells was scored.
# For cell viability assays, both the anitbody sensitization and the anitgen challenge were performed in RPMI medium supplemented with 0.5% BSA (Sigma) at 37° C. in a humidified incubator containing 5% CO2.
# Cell viability measurement. Trypan blue exclusion assay was used in all of the cell survival experiments. In brief, cell suspension was mixed with the vital dye, trypan blue, and the number of live cells was scored.
structure (smiles),measurement,setting,value
O=C(O)CN(CCN(CC(=O)O)CC(=O)O)CC(=O)O [EDTA],β-hexosaminidase release following FcεRI aggregation in the presence of the compound,[1],inhibit release of mast cell granular enzyme β-hexosaminidase
same,A1 induction by FcεRI aggregation in the presence of inhibitor,[2],blocked A1 expression
C[C@@H]1C[C@@H]([C@H](O)CC2CC(=O)NC(=O)C2)C(=O)[C@@H](C)C1 [cycloheximide],A1 induction by FcεRI aggregation in the presence of inhibitor,"[2]; MCP5/L cells, FcεRI crosslinkage 6 hr, wortmannin 100 nM, cyclosporin A 2 μg/ml, cycloheximide 10 μg/ml, dexamethasone 1 μM, EDTA 1 mM, FIG. 8A, 9",could completely block A1 induction
C[C@H](CCC(=O)O)C[C@H](C)C[C@H](C)C(=O)/C=C(\O)[C@H](C)C[C@H](C)C/C=C/[C@@H](C)[C@@H](O)[C@@H](C)[C@@H](O)C[C@@H]1CC[C@@](C)([C@H]2CC[C@@](C)([C@@H](C)O)O2)O1 [ionomycin],Survival of mast cells treated with the compound,[3],promoted mast cell survival
same,A1 gene expression (transcription) induced by the compound alone,"[2]; MCP5/L cells exposed for 6 hr, c48/80 at concentrations of up to 1 mg/ml, FIG. 7",induced expression of A1
